Measurements as given in US8471005B2 (Cephalon, Inc., priority 2008, dated 2013).
Like-named read-outs stand apart in the source and are kept apart here.

How the values were obtained:
[1] = molecular target: T1, ALK (Homo sapiens, UniProt Q9UM73); assay: ALK Kinase Assay (ELISA/TRF, PLC-γ substrate); type: biochemical; conditions: read-out: ALK Potency
T1 construct: host or cells: baculovirus expression system
Method in brief: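 PLC-γ coat 10 μg/mL in TBS; ALK 30 ng/ml added to start; 37° C, 15 min; Eu-N1 PT66 antibody detection (TRF). IC50: % inhibition vs log10 [cpd], variable-slope sigmoidal fit.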

[2] = molecular target: T2, JAK2 (Homo sapiens, UniProt O60674); assay: Recombinant Human JAK2 Kinase Assay (TRF); type: biochemical; conditions: read-out: JAK2 Potency
T2 construct: host or cells: baculovirus expression system
Method in brief: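 TRF read-out: Eu-N1 PY100 anti-phosphotyrosine antibody detects product. Enzyme is baculovirus-expressed JAK2 at 15 ng/ml; substrate is a biotinyl 15-mer peptide bound to Neutravidin-coated wells. Buffer 20 mM HEPES pH 7.2, 0.2 μM ATP, 1 mM MnCl2, 0.1% BSA, 2.5% DMSO final; 20 min, RT.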

[3] = ALK kinase inhibition, 1 μM ATP
[4] = JAK2 kinase inhibition, 0.2 μM ATP

T1 sequence (Q9UM73 19-1620): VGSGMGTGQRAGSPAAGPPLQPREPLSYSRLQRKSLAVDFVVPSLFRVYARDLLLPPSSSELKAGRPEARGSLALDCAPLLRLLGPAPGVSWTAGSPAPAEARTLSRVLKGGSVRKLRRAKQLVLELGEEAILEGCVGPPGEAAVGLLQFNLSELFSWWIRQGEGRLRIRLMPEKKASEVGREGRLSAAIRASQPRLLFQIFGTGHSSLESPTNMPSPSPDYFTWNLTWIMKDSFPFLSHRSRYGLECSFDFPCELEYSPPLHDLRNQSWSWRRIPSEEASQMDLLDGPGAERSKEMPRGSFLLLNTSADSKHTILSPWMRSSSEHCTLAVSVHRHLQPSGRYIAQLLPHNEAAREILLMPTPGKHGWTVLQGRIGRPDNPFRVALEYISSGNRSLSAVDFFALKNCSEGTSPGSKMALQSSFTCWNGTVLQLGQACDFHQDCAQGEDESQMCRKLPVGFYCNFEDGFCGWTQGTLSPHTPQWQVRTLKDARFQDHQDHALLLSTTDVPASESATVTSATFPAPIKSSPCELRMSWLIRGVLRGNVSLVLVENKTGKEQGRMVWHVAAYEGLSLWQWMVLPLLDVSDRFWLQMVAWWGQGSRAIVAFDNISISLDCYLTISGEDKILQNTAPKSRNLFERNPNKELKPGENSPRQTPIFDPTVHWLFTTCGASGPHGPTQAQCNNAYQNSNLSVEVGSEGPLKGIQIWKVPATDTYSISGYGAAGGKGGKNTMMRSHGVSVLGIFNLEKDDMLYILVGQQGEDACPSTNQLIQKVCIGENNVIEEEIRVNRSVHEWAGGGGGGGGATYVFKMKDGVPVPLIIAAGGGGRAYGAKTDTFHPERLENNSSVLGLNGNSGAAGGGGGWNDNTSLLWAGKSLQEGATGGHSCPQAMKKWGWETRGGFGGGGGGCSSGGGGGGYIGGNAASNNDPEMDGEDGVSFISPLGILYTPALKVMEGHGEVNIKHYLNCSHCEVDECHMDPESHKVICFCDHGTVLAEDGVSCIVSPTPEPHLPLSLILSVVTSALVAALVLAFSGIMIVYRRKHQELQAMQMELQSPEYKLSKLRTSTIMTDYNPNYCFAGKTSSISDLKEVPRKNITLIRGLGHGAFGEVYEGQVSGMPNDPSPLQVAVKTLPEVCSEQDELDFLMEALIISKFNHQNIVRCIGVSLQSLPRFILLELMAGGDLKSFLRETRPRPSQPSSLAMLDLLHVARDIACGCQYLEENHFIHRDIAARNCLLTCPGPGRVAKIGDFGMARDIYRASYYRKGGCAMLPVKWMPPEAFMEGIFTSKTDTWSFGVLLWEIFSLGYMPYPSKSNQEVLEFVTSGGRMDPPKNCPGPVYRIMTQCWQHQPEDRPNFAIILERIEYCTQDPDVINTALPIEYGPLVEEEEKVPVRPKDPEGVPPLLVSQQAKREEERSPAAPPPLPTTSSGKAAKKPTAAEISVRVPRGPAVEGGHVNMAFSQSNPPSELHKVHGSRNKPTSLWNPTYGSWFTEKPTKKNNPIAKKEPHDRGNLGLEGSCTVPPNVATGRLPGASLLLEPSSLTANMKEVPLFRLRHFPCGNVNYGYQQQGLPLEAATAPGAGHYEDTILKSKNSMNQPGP
T2 sequence (O60674 whole entry): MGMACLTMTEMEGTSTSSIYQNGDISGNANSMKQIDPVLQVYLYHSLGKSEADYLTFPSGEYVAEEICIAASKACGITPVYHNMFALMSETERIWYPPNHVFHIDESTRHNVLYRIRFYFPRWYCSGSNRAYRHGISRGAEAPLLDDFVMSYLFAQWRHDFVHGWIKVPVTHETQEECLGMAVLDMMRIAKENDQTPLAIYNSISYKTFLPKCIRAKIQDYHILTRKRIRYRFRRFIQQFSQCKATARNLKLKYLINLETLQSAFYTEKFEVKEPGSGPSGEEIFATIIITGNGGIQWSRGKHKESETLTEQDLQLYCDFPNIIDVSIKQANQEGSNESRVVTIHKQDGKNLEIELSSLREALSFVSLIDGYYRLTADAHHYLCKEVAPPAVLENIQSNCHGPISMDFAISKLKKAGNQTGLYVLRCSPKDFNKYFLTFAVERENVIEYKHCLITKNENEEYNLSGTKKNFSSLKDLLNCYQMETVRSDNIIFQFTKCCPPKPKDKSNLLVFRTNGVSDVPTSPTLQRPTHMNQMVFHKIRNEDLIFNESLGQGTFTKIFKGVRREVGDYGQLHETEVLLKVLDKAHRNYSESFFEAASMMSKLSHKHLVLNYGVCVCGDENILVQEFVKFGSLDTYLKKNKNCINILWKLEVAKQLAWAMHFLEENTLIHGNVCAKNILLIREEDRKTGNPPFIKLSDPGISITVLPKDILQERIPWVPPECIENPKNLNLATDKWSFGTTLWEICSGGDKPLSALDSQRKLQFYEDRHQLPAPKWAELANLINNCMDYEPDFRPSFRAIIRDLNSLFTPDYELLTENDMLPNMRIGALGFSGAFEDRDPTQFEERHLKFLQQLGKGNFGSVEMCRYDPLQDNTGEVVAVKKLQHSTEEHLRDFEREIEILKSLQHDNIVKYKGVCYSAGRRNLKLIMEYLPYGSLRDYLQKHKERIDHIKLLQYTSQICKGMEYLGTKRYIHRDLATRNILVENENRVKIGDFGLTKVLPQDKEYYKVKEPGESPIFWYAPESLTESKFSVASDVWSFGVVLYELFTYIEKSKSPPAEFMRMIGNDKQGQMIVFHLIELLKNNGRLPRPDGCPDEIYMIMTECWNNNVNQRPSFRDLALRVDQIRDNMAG

Structure (SMILES) | IC50 [1, 3] | IC50 [2, 4] | IC50 ([1]; ALK Kinase Inhibition) | IC50 ([2]; JAK2 Kinase Inhibition)
COc1ccccc1-c1ccc2cnc(Nc3ccc(N4CCCC(N5CCN(C)CC5)C4)cc3)nn12 (centres unmarked) [Example 348, [7-(2-Methoxy-phenyl)-pyrrolo[2,1-f][1,2,4]triazin-2-yl]-{4-[3-(4-methyl-piperazin-1-yl)-piperidin-1-yl]-phenyl}-amine] | – | – | < 100 nM | < 100 nM
C[C@@H](O)CN1CCN(c2ccc(Nc3ncc4ccc(-c5ccc(S(C)(=O)=O)cc5)n4n3)cc2)CC1 [Example 209, (R)-1-(4-{4-[7-(4-Methanesulfonyl-phenyl)-pyrrolo[2,1-f][1,2,4]triazin-2-ylamino]-phenyl}-piperazin-1-yl)-propan-2-ol] | – | – | 100 to 1000 nM | < 100 nM
CS(=O)(=O)Nc1cccc(-c2ccc3cnc(Nc4ccc5c(c4)CCC(N4CCOCC4)CC5)nn23)c1 (centres unmarked) [Example 382, N-{3-[2-(7-Morpholin-4-yl-6,7,8,9-tetrahydro-5H-benzocyclohepten-2-ylamino)-pyrrolo[2,1-f][1,2,4]triazin-7-yl]-phenyl}-methanesulfonamide] | – | – | 100 to 1000 nM | < 100 nM
COc1ccc(Cl)cc1-c1ccc2cnc(Nc3cccc(N4CCN(C[C@@H](C)O)CC4)c3)nn12 [Example 214, (R)-1-(4-{3-[7-(5-Chloro-2-methoxy-phenyl)-pyrrolo[2,1-f][1,2,4]triazin-2-ylamino]-phenyl}-piperazin-1-yl)-propan-2-ol] | – | – | < 100 nM | < 100 nM
c1cc(Nc2ncc3cccn3n2)cc(N2CCOCC2)c1 [Example 174, (3-Morpholin-4-yl-phenyl)-pyrrolo[2,1-f][1,2,4]triazin-2-yl-amine] | – | – | > 10000 nM | 100 to 1000 nM
O=C(NCCN1CCCC1)c1ccc(-c2ccc3cnc(Nc4ccc(N5CCOCC5)cc4)nn23)cc1 [Example 53, 4-[2-(4-Morpholin-4-yl-phenylamino)-pyrrolo[2,1-f][1,2,4]triazin-7-yl]-N-(2-pyrrolidin-1-yl-ethyl)-benzamide] | – | – | 100 to 1000 nM | < 100 nM
CCN1CCOC(c2ccc(Nc3ncc4ccc(-c5cc(Cl)ccc5OC)n4n3)cc2)C1 (centres unmarked) [Example 253, [7-(5-Chloro-2-methoxy-phenyl)-pyrrolo[2,1-f][1,2,4]triazin-2-yl]-[4-(4-ethyl-morpholin-2-yl)-phenyl]-amine] | – | – | < 100 nM | < 100 nM
COc1ccccc1-c1ccc2cnc(Nc3ccc(N4CCC(CN5CCN(C)CC5)CC4)cc3)nn12 [Example 451, [7-(2-Methoxy-phenyl)-pyrrolo[2,1-f][1,2,4]triazin-2-yl]-{4-[4-(4-methyl-piperazin-1-ylmethyl)-piperidin-1-yl]-phenyl}-amine] | – | – | < 100 nM | < 100 nM
COc1cc(N2CCN(C)CC2)ccc1Nc1ncc2ccc(-c3ccccc3OC)n2n1 [Example 33, [2-Methoxy-4-(4-methyl-piperazin-1-yl)-phenyl]-[7-(2-methoxy-phenyl)-pyrrolo[2,1-f][1,2,4]triazin-2-yl]-amine] | – | – | < 100 nM | < 100 nM
CNS(=O)(=O)c1cccc(-c2ccc3cnc(Nc4ccc(N5CCOCC5)cc4)nn23)c1 [Example 357, N-Methyl-3-[2-(4-morpholin-4-yl-phenylamino)-pyrrolo[2,1-f][1,2,4]triazin-7-yl]-benzenesulfonamide] | – | – | 100 to 1000 nM | < 100 nM
CCN1CCC(O)(c2ccc(Nc3ncc4ccc(-c5ccccc5N(C)S(C)(=O)=O)n4n3)c(OC)c2)CC1 [Example 743, N-(2-{2-[4-(1-Ethyl-4-hydroxy-piperidin-4-yl)-2-methoxy-phenylamino]-pyrrolo[2,1-f][1,2,4]triazin-7-yl}-phenyl)-N-methyl-methanesulfonamide] | < 100 nM | 1000 to 10000 nM | – | –

Now from value to molecule:

IC50 [1, 3] | IC50 [2, 4] | IC50 ([1]; ALK Kinase Inhibition) | IC50 ([2]; JAK2 Kinase Inhibition) | Structure (SMILES)
< 100 nM | 100 to 1000 nM | – | – | COc1cc([C@]2(C#N)CC[C@H](N3CCOCC3)CC2)ccc1Nc1ncc2ccc(-c3ccccc3N(C)S(C)(=O)=O)n2n1 [Example 1245, N-{2-[2-({4-[trans-1-cyano-4-(morpholin-4-yl)cyclohexyl]-2-methoxyphenyl}amino)pyrrolo[2,1-f][1,2,4]triazin-7-yl]phenyl}-N-methylmethanesulfonamide]
100 to 1000 nM | < 100 nM | – | – | CN1CCN(c2ccc(Nc3ncc4ccc(-c5cccnc5F)n4n3)cc2)CC1 [Example 1041, [7-(2-Fluoro-pyridin-3-yl)-pyrrolo[2,1-f][1,2,4]triazin-2-yl]-[4-(4-methyl-piperazin-1-yl)-phenyl]-amine]
1000 to 10000 nM | < 100 nM | – | – | COc1ccc(-c2ccc3cnc(Nc4ccc(N5CCOCC5)nc4)nn23)cn1 [Example 1106]
– | – | 100 to 1000 nM | < 100 nM | CN1CCN(Cc2nc3cc(Nc4ncc5ccc(-c6cccc(S(C)(=O)=O)c6)n5n4)ccc3[nH]2)CC1 [Example 1538, [7-(3-Methanesulfonyl-phenyl)-pyrrolo[2,1-f][1,2,4]triazin-2-yl]-[2-(4-methyl-piperazin-1-ylmethyl)-1H-benzimidazol-5-yl]-amine]
> 10000 nM | 1000 to 10000 nM | – | – | COc1ccccc1-c1ccn2nc(NCc3cccc(N(C)C)c3)ncc12 [Example 721, (3-Dimethylamino-benzyl)-[5-(2-methoxy-phenyl)-pyrrolo[2,1-f][1,2,4]triazin-2-yl]-amine]
1000 to 10000 nM | < 100 nM | – | – | CC(C)CCn1cc(-c2ccc3cnc(Nc4cccc(N5CCN(C)CC5)c4)nn23)cn1 [Example 971, {7-[1-(3-Methyl-butyl)-1H-pyrazol-4-yl]-pyrrolo[2,1-f][1,2,4]triazin-2-yl}-[3-(4-methyl-piperazin-1-yl)-phenyl]-amine]
100 to 1000 nM | < 100 nM | – | – | CN(c1ccccc1-c1ccc2cnc(Nc3ccc(-c4cccnc4)cc3)nn12)S(C)(=O)=O [Example 1092, N-Methyl-N-{2-[2-(4-pyridin-3-yl-phenylamino)-pyrrolo[2,1-f][1,2,4]triazin-7-yl]-phenyl}-methanesulfonamide]
< 100 nM | 100 to 1000 nM | – | – | COc1cc(C2CCN(C[C@@H](C)O)CC2)ccc1Nc1ncc2ccc(-c3ccccc3N(C)S(C)(=O)=O)n2n1 [Example 788, N-[2-(2-{4-[1-((R)-2-Hydroxy-propyl)-piperidin-4-yl]-2-methoxy-phenylamino}-pyrrolo[2,1-f][1,2,4]triazin-7-yl)-phenyl]-N-methyl-methanesulfonamide]
1000 to 10000 nM | > 10000 nM | – | – | COc1ccc(C(=O)N2CCN(C)CC2)cc1Nc1ncc2ccc(-c3ccccc3N(C)S(C)(=O)=O)n2n1 [Example 496, N-(2-{2-[2-Methoxy-5-(4-methyl-piperazine-1-carbonyl)-phenylamino]-pyrrolo[2,1-f][1,2,4]triazin-7-yl}-phenyl)-N-methyl-methanesulfonamide]
– | – | 100 to 1000 nM | < 100 nM | COc1ccc(-c2ccc3cnc(Nc4ccc(C5CNCCN5)cc4)nn23)cn1 (centres unmarked) [Example 1529, [7-(6-Methoxy-pyridin-3-yl)-pyrrolo[2,1-f][1,2,4]triazin-2-yl]-(4-piperazin-2-yl-phenyl)-amine]
1000 to 10000 nM | < 100 nM | – | – | CON=C1CCC(c2ccc(Nc3ncc4ccc(-c5cccc(S(=O)(=O)C(C)C)c5)n4n3)cc2)CC1 (centres unmarked) [Example 576, 4-(4-{7-[3-(Propane-2-sulfonyl)-phenyl]-pyrrolo[2,1-f][1,2,4]triazin-2-ylamino}-phenyl)-cyclohexanone O-methyl-oxime]
